Measured values taken from patent US10829458B2 (Araxes Pharma LLC, priority 2015, dated 2020).

Target: T1, KRAS G12C 1-169, his-tagged protein, GDP-loaded (Homo sapiens, UniProt P01116, G12C)
T1 construct: KRAS G12C 1-169, his-tagged protein, GDP-loaded
Experiment: Biochemical assay: covalent modification of KRAS G12C measured by mass spectrometry (RapidFire/TOF or Q-Exactive)
Conditions: covalent binding to KRAS G12C
Summary of the method: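 GDP-loaded his-tagged KRAS G12C 1-169 at 2 μM in 20 mM Hepes, 150 mM NaCl, 1 mM MgCl2 incubated at room temperature with compound (10, 30 or 100 μM final, 2% DMSO) for 30 min, 2 h or 24 h, then quenched with formic acid. Intact-protein LC-MS (RapidFire/TOF or Q-Exactive) with deconvolution quantified modified versus unmodified protein.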

SMILES | Binding % (compounds of structure (I)) | Binding % (compounds of structure (III))
C=CC(=O)N1CCN(c2nc(NC3CCN(C4CC4)CC3)nc3c(F)c(-c4c(C)ccc5[nH]ncc45)c(Cl)cc23)CC1 (atropisomer, axis not shown) [Example I-82, (R)-1-(4-(6-chloro-2-(1-cyclopropyl-piperidin-4-ylamino)-8-fluoro-7-(5-methyl-1H-indazol-4-yl)quinazolin-4-yl)piperazin-1-yl)prop-2-en-1-one] | +++ (+++ indicates binding activity greater than 90%) | 
C=CC(=O)N1CCN(c2nc(OC3CCN(C(C)C)CC3)nc3c(F)c(-c4c(C)ccc5[nH]ncc45)c(Cl)cc23)CC1 [Example I-193, 1-(4-(6-chloro-8-fluoro-2-((1-isopropyl-piperidin-4-yl)oxy)-7-(5-methyl-1H-indazol-4-yl)quinazolin-4-yl)piperazin-1-yl) prop-2-en-1-one] | +++ (+++ indicates binding activity greater than 90%) | 
C=CC(=O)N1CCN(c2nc(OCCN3CCN(C4CC4)CC3)nc3c(F)c(-c4c(O)cccc4F)c(Cl)cc23)CC1 [Example I-168, 1-(4-(6-chloro-2-(2-(4-cyclopropyl-piperazin-1-yl)ethoxy)-8-fluoro-7-(2-fluoro-6-hydroxyphenyl)quinazolin-4-yl)piperazin-1-yl) prop-2-en-1-one] | +++ (+++ indicates binding activity greater than 90%) | 
C=CC(=O)N1CCN(c2nc(OC)nc3c(OC)c(-c4c(O)cccc4F)c(Cl)cc23)CC1 [Example I-154, 1-(4-(6-chloro-7-(2-fluoro-6-hydroxyphenyl)-2,8-dimethoxy-quinazolin-4-yl)piperazin-1-yl) prop-2-en-1-one] | +++ (+++ indicates binding activity greater than 90%) | 
C=CC(=O)N1CCN(c2nc(OC3CCN(C)CC3)nc3c(F)c(-c4c(C)ccc5[nH]ncc45)c(Cl)cc23)CC1 [Example I-59, 1-(4-(6-chloro-8-fluoro-7-(5-methyl-1H-indazol-4-yl)-2-(1-methyl-piperidin-4-yloxy)quinazolin-4-yl)piperazin-1-yl)prop-2-en-1-one] | +++ (+++ indicates binding activity greater than 90%) | 
C=CC(=O)N1[C@H](C)CN(c2ncnc3c(F)c(-c4c(C)ccc5[nH]ncc45)c(Cl)cc23)C[C@@H]1C [III-26, 1-((2S,6R)-4-(6-chloro-8-fluoro-7-(5-methyl-1H-indazol-4-yl)quinazolin-4-yl)-2,6-dimethyl-piperazin-1-yl)prop-2-en-1-one] |  | ++ (++ indicates activity from 50% to 90%)
C=CC(=O)N1CCN(c2nc(OCCN3CC(F)(F)C3)nc3c(F)c(-c4c(C)ccc5[nH]ncc45)c(Cl)cc23)CC1 [Example I-145, 1-(4-(6-chloro-2-(2-(3,3-difluoro-azetidin-1-yl)ethoxy)-8-fluoro-7-(5-methyl-1H-indazol-4-yl)quinazolin-4-yl)piperazin-1-yl) prop-2-en-1-one] | +++ (+++ indicates binding activity greater than 90%) | 
C=CC(=O)N1CCN(c2nc(OCCO)nc3c(F)c(-c4cc(O)cc5ccccc45)c(Cl)cc23)CC1 [Example I-83, 1-(4-(6-chloro-8-fluoro-2-(2-hydroxyethoxy)-7-(3-hydroxy-naphthalen-1-yl)quinazolin-4-yl)piperazin-1-yl)prop-2-en-1-one] | +++ (+++ indicates binding activity greater than 90%) | 
C=CC(=O)N1CCN(c2nc(NCCc3ccccn3)nc3c(F)c(-c4c(C)ccc5[nH]ncc45)c(Cl)cc23)CC1 [Example I-142, 1-(4-(6-chloro-8-fluoro-7-(5-methyl-1H-indazol-4-yl)-2-(2-(pyridin-2-yl)ethylamino)quinazolin-4-yl)piperazin-1-yl) prop-2-en-1-one] | +++ (+++ indicates binding activity greater than 90%) | 
C=CC(=O)N1CCN(c2nc(P(C)(C)=O)nc3c(F)c(-c4c(O)cccc4F)c(Cl)cc23)CC1 [Example I-205, 1-(4-(6-chloro-2-(dimethyl-phosphoryl)-8-fluoro-7-(2-fluoro-6-hydroxyphenyl)quinazolin-4-yl)piperazin-1-yl) prop-2-en-1-one] | ++ (++ indicates binding activity from 50 to 90%) | 
C=CC(=O)N1CCN(c2nc(OCc3cnc(C)nc3)nc3c(F)c(-c4c(O)cccc4F)c(Cl)cc23)CC1 [Example I-101, 1-(4-(6-chloro-8-fluoro-7-(2-fluoro-6-hydroxyphenyl)-2-((2-methyl-pyrimidin-5-yl)methoxy)quinazolin-4-yl)piperazin-1-yl) prop-2-en-1-one] | +++ (+++ indicates binding activity greater than 90%) | 
C=CC(=O)N1CCN(c2nc(NC3CN(C(C)C)C3)nc3c(F)c(-c4c(O)cccc4F)c(Cl)cc23)CC1 [Example I-174, 1-(4-(6-chloro-8-fluoro-7-(2-fluoro-6-hydroxyphenyl)-2-((1-isopropyl-azetidin-3-yl)amino)quinazolin-4-yl)piperazin-1-yl) prop-2-en-1-one] | + (+ indicates binding activity up to 50%) | 
C=CC(=O)N1CCN(c2nc(CCNc3ncccn3)nc3c(F)c(-c4c(O)cccc4F)c(Cl)cc23)CC1 [Example I-135, 1-(4-(6-chloro-8-fluoro-7-(2-fluoro-6-hydroxyphenyl)-2-(2-(pyrimidin-2-ylamino)ethyl)quinazolin-4-yl)piperazin-1-yl) prop-2-en-1-one] | +++ (+++ indicates binding activity greater than 90%) | 
C=C(Cl)C(=O)N1CCN(c2nc(OCCN3CCOCC3)nc3c(F)c(-c4cc(O)cc5ccccc45)c(Cl)cc23)CC1 [Example I-73, 2-chloro-1-(4-(6-chloro-8-fluoro-7-(3-hydroxy-naphthalen-1-yl)-2-(2-morpholino-ethoxy)quinazolin-4-yl)piperazin-1-yl)prop-2-en-1-one] | +++ (+++ indicates binding activity greater than 90%) | 
C=CC(=O)N1CCN(c2nc(NC3CCN(CC(F)(F)F)CC3)nc3c(F)c(-c4c(O)cccc4F)c(Cl)cc23)CC1 [Example I-21, 1-(4-(6-chloro-8-fluoro-7-(2-fluoro-6-hydroxyphenyl)-2-(1-(2,2,2-trifluoroethyl)piperidin-4-ylamino)quinazolin-4-yl)piperazin-1-yl)prop-2-en-1-one] | + (+ indicates binding activity up to 50%) | 
C=CC(=O)N1CCN(c2nc(OCCN3CCOCC3)nc3c(F)c(-c4cc(O)cc5ccccc45)c(Cl)cc23)CC1 (atropisomer, axis not shown) [Example I-52, (R)-1-(4-(6-chloro-8-fluoro-7-(3-hydroxy-naphthalen-1-yl)-2-(2-morpholino-ethoxy)quinazolin-4-yl)piperazin-1-yl)prop-2-en-1-one] | + (+ indicates binding activity up to 50%) | 
C=CC(=O)N1CCN(c2nc(OC3CCN(C4CC4)CC3)nc3c(F)c(-c4c(C)ccc5[nH]ncc45)c(Cl)cc23)CC1 [Example I-194] | + (+ indicates binding activity up to 50%) | 
C=CC(=O)N1CCN(c2nc(OC3CN(C(C)C)C3)nc3c(F)c(-c4c(O)cccc4F)c(Cl)cc23)CC1 [Example I-178, 1-(4-(6-chloro-8-fluoro-7-(2-fluoro-6-hydroxyphenyl)-2-((1-isopropyl-azetidin-3-yl)oxy)quinazolin-4-yl)piperazin-1-yl)prop-2-en-1-one] | ++ (++ indicates binding activity from 50 to 90%) | 
C=CC(=O)N1CCN(c2nc(NC3CCN(CC4CC4)CC3)nc3c(F)c(-c4c(C)ccc5[nH]ncc45)c(Cl)cc23)CC1 [Example I-128, 1-(4-(6-chloro-2-(1-(cyclo-propylmethyl)piperidin-4-ylamino)-8-fluoro-7-(5-methyl-1H-indazol-4-yl)quinazolin-4-yl)piperazin-1-yl) prop-2-en-1-one] | +++ (+++ indicates binding activity greater than 90%) | 
C=CC(=O)N1CCN(c2nc(NC3CN(c4ncccn4)C3)nc3c(F)c(-c4c(C)ccc5[nH]ncc45)c(Cl)cc23)CC1 [Example I-187, 1-(4-(6-chloro-8-fluoro-7-(5-methyl-1H-indazol-4-yl)-2-((1-(pyrimidin-2-yl)azetidin-3-yl)amino)quinazolin-4-yl)piperazin-1-yl) prop-2-en-1-one] | + (+ indicates binding activity up to 50%) | 
C=CC(=O)N1CCN(c2nc(OCc3ncccn3)nc3c(F)c(-c4c(O)cccc4F)c(Cl)cc23)CC1 [Example I-105, 1-(4-(6-chloro-8-fluoro-7-(2-fluoro-6-hydroxyphenyl)-2-(pyrimidin-2-ylmethoxy)quinazolin-4-yl)piperazin-1-yl) prop-2-en-1-one] | +++ (+++ indicates binding activity greater than 90%) | 
C=CC(=O)N1CCN(c2ncnc3c(F)c(-c4c(O)cccc4F)c(Cl)cc23)CC1(C)C [III-7, 1-(4-(6-chloro-8-fluoro-7-(2-fluoro-6-hydroxy-phenyl)quinazolin-4-yl)-2,2-dimethyl-piperazin-1-yl)prop-2-en-1-one] |  | + (+ indicates binding activity up to 50%)
C=CC(=O)N1CCN(c2nc(OCCn3ccnc3C)nc3c(F)c(-c4c(C)ccc5[nH]ncc45)c(Cl)cc23)CC1 [Example I-6, 1-(4-(6-chloro-8-fluoro-2-(2-(2-methyl-1H-imidazol-1-yl)ethoxy)-7-(5-methyl-1H-indazol-4-yl)quinazolin-4-yl)piperazin-1-yl)prop-2-en-1-one] | +++ (+++ indicates binding activity greater than 90%) | 
C=CC(=O)N1CCN(c2ncnc3c(F)c(-c4c(O)cccc4F)c(Cl)cc23)CC1C (stereo not shown) [III-5, 1-(4-(6-chloro-8-fluoro-7-(2-fluoro-6-hydroxy-phenyl)quinazolin-4-yl)-2-methyl-piperazin-1-yl)prop-2-en-1-one] |  | ++ (++ indicates activity from 50% to 90%)
C=CC(=O)N1C[C@@H](C)N(c2ncnc3c(F)c(-c4c(O)cccc4F)c(Cl)cc23)[C@@H](C)C1 (atropisomer, axis not shown) [III-4, 1-((3S,5R)-4-((R)-6-chloro-8-fluoro-7-(2-fluoro-6-hydroxy-phenyl)quinazolin-4-yl)-3,5-dimethyl-piperazin-1-yl)prop-2-en-1-one] |  | + (+ indicates binding activity up to 50%)
